Molecular target: T1, human FXR (Homo sapiens, UniProt Q96RI1)
T1 construct: expressed in transfected cells; host or cells: HEK293 cells stably carrying a 5xGal4-response-element firefly luciferase reporter, transiently transfected with pcDNA3.1-Gal4-FXR
T1 sequence (Q96RI1 262-486 limits assumed): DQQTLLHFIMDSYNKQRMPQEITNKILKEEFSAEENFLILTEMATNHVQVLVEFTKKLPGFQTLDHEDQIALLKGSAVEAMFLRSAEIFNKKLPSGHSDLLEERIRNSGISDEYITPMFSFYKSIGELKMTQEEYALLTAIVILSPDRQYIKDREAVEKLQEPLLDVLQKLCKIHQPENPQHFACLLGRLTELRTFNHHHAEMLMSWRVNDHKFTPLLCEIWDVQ
Assay: transient human FXR/Gal4-luciferase reporter assay
Type: cell-based
Conditions: Gal4-hFXR transfected HEK293 reporter cells; relative to 8 μM GW-4064
Experimental: A Gal4-hFXR fusion construct reporter system was used as the primary assay to characterize compound activity. A construct including 5 copies of the Gal4 promoter response element upstream of a firefly luciferase reporter cDNA was stably expressed in HEK293 cells. This reporter cell line was maintained in Dulbecco's Modified Eagle's medium (DMEM; Gibco) supplemented with 1% penicillin-streptomycin (P/S) solution, 500 μg/mL Zeocin and 10% charcoal/dextran-treated fetal bovine serum (cs-FBS) at 37° C. in a humidified 5% CO2 atmosphere. Another plasmid was constructed in which the human cytomegalovirus promoter in the pcDNA3.1 vector directs the expression of the cDNA encoding a fusion protein comprised of the DNA binding domain from the Gal4 transcription factor fused to the ligand binding domain from human FXR.
The day prior to transfection, the reporter cells in culture are detached from the plate with trypsin and plated into a T75 flask at a sufficient density to achieve approximately 90% confluence the next morning. The transfection reagents are prepared by separately diluting 25 μg of the pcDNA3.1-Gal4-FXR plasmid into 1.87 mL of Opti-MEM (Thermo-Fisher), and 40 μL of Lipofectamine 2000 (Thermo-Fisher) into 1.87 mL of Opti-MEM, and then adding the diluted DNA solution into the diluted Lipofectamine 2000 solution and incubating at room temperature for 15-20 minutes. The mixture is further diluted with 10 mL of a solution comprised of DMEM, 10% cs-FBS, and 1% P/S immediately prior to transferring to the cells. The maintenance culture media is aspirated from the cells and the final transfection mixture is added before the cells are incubated overnight at 37° C. in a humidified 5% CO2 atmosphere. This protocol can be scaled up, and the transiently transfected cells can be cryopreserved in an assay-ready format.
For compound testing, 100 nL of the compounds (serial dilutions in DMSO) are dispensed with an Echo acoustic dispenser (Labcyte) into the wells of a Corning/Costar clear bottom 384-well white plate. The transfected cells are harvested, counted, and diluted such that 10-25,000 cells in 25 μL are plated into each well of the 384-well compound assay plate. The compound-treated cells are incubated overnight at 37° C. in a humidified 5% CO2 atmosphere.

SMILES | EC50
O=C(O)c1cc(C(F)(F)F)c2cc(N3CCC4(C=C(c5c(-c6c(F)cccc6Cl)noc5C5CC5)C4)CC3)ccc2n1 [Example 88, 6-(2-(3-(2-Chloro-6-fluorophenyl)-5-cyclopropylisoxazol-4-yl)-7-azaspiro[3.5]non-1-en-7-yl)-4-(trifluoromethyl)quinoline-2-carboxylic acid] | 150 nM
Cn1nc(N2CCC3(C=C(c4c(-c5ccccc5C(F)(F)F)noc4C4CC4)C3)CC2)c2ccc(C(=O)O)cc21 [Example 134, 3-(2-(5-Cyclopropyl-3-(2-(trifluoromethyl)phenyl)isoxazol-4-yl)-7-azaspiro[3.5]non-1-en-7-yl)-1-methyl-1H-indazole-6-carboxylic acid] | 3310 nM
CC(C)c1onc(-c2c(Cl)cncc2Cl)c1C1=CC2(CCN(c3ccc4nc(C(=O)O)cc(C(F)(F)F)c4c3)CC2)C1 [Example 95, 6-(2-(3-(3,5-Dichloropyridin-4-yl)-5-isopropylisoxazol-4-yl)-7-azaspiro[3.5]non-1-en-7-yl)-4-(trifluoromethyl)quinoline-2-carboxylic acid] | 37 nM
O=C(O)c1cc(F)c2nc(N3CCC4(C=C(c5c(-c6c(Cl)cc(F)cc6Cl)noc5C5CC5)C4)CC3)sc2c1 [Example 48, 2-(2-(5-Cyclopropyl-3-(2,6-dichloro-4-fluorophenyl)isoxazol-4-yl)-7-azaspiro[3.5]non-1-en-7-yl)-4-fluorobenzo[d]thiazole-6-carboxylic acid] | 115 nM
O=C(O)c1cc(C(F)(F)F)c2cc(N3CCC4(C=C(c5c(-c6ccccc6C(F)(F)F)noc5C5CC5)C4)CC3)ccc2n1 [Example 99, 6-(2-(5-Cyclopropyl-3-(2-(trifluoromethyl)phenyl)isoxazol-4-yl)-7-azaspiro[3.5]non-1-en-7-yl)-4-(trifluoromethyl)quinoline-2-carboxylic acid] | 92 nM
COc1cc(C(=O)O)cc2sc(N3CCC4(C=C(c5c(-c6ccccc6C(F)(F)F)noc5C5CC5)C4)CC3)nc12 [Example 71, 2-(2-(5-Cyclopropyl-3-(2-(trifluoromethyl)phenyl)isoxazol-4-yl)-7-azaspiro[3.5]non-1-en-7-yl)-4-methoxybenzo[d]thiazole-6-carboxylic acid] | 9.4 nM
CC(C)Oc1cc(C(=O)O)nc2ccc(N3CCC4(C=C(c5c(-c6ccccc6C(F)(F)F)noc5C5CC5)C4)CC3)cc12 [Example 104, 6-(2-(5-Cyclopropyl-3-(2-(trifluoromethyl)phenyl)isoxazol-4-yl)-7-azaspiro[3.5]non-1-en-7-yl)-4-isopropoxyquinoline-2-carboxylic acid] | 59 nM
O=C(O)c1cccc2nc(N3CCC4(C=C(c5c(-c6c(Cl)cncc6Cl)noc5C5CC5)C4)CC3)ccc12 [Example 65, 2-(2-(5-Cyclopropyl-3-(3,5-dichloropyridin-4-yl)isoxazol-4-yl)-7-azaspiro[3.5]non-1-en-7-yl)quinoline-5-carboxylic acid] | 65 nM
CC(C)Oc1cc(C(=O)O)nc2ccc(N3CCC4(C=C(c5c(-c6ccccc6OC(F)(F)F)noc5C5CC5)C4)CC3)cc12 [Example 106, 6-(2-(5-Cyclopropyl-3-(2-(trifluoromethoxy)phenyl)isoxazol-4-yl)-7-azaspiro[3.5]non-1-en-7-yl)-4-isopropoxyquinoline-2-carboxylic acid] | 21 nM
O=C(O)c1ccc(N2CCC3(C=C(c4c(-c5ccccc5C(F)(F)F)noc4C4CC4)C3)CC2)nc1 [Example 30, 6-(2-(5-Cyclopropyl-3-(2-(trifluoromethyl)phenyl)isoxazol-4-yl)-7-azaspiro[3.5]non-1-en-7-yl) nicotinic acid] | 110 nM
O=C(O)c1cccc(N2CCC3(C=C(c4c(-c5c(Cl)cccc5Cl)noc4C4CC4)C3)CC2)c1 [Example 9, 3-(2-(5-Cyclopropyl-3-(2,6-dichlorophenyl)isoxazol-4-yl)-7-azaspiro[3.5]non-1-en-7-yl)benzoic acid] | 4200 nM
Cc1cccc(Cl)c1-c1noc(C2CC2)c1C1=CC2(CCN(c3ccc4nc(C(=O)O)cc(C(F)(F)F)c4c3)CC2)C1 [Example 89, 6-(2-(3-(2-Chloro-6-methylphenyl)-5-cyclopropylisoxazol-4-yl)-7-azaspiro[3.5]non-1-en-7-yl)-4-(trifluoromethyl)quinoline-2-carboxylic acid] | 202 nM
COc1cc(C(=O)O)nc2ccc(N3CCC4(C=C(c5c(C6CCCCC6)noc5C5CC5)C4)CC3)cc12 [Example 147, 6-(2-(3-Cyclohexyl-5-cyclopropylisoxazol-4-yl)-7-azaspiro[3.5]non-1-en-7-yl)-4-methoxyquinoline-2-carboxylic acid] | 1060 nM
CC(C)c1onc(-c2c(Cl)cccc2Cl)c1C1=CC2(CCN(c3ccc4nc(C(=O)O)cc(C(F)(F)F)c4c3)CC2)C1 [Example 84, 6-(2-(3-(2,6-Dichlorophenyl)-5-isopropylisoxazol-4-yl)-7-azaspiro[3.5]non-1-en-7-yl)-4-(trifluoromethyl)quinoline-2-carboxylic acid] | 127 nM

Next, values leading:

EC50 | SMILES
2620 nM | O=C(O)c1cc(F)c2nc(OC3CCC4(CC3)CC(O)(c3c(-c5c(Cl)cccc5Cl)noc3C3CC3)C4)sc2c1 (centres unmarked) [Example 205, 2-((2-(5-Cyclopropyl-3-(2,6-dichlorophenyl)isoxazol-4-yl)-2-hydroxyspiro[3,5]nonan-7-yl)oxy)-4-fluorobenzo[d]thiazole-6-carboxylic acid]
180 nM | Cn1cc(C(=O)O)c2ccc(N3CCC4(C=C(c5c(C(F)F)cnn5-c5ccccc5C(F)(F)F)C4)CC3)cc21 [Example 219, 6-(2-(4-(Difluoromethyl)-1-(2-(trifluoromethyl)phenyl)-1H-pyrazol-5-yl)-7-azaspiro[3.5]non-1-en-7-yl)-1-methyl-1H-indole-3-carboxylic acid]
4710 nM | O=C(O)c1cccc(COC2CCC3(CC2)CC(O)(c2c(-c4c(Cl)cccc4Cl)noc2C2CC2)C3)c1 (centres unmarked) [Example 206, 3-(((2-(5-Cyclopropyl-3-(2,6-dichlorophenyl)isoxazol-4-yl)-2-hydroxyspiro[3.5]nonan-7-yl)oxy)methyl)benzoic acid]
60 nM | O=C(NS(=O)(=O)C1CC1)c1cc(F)c2nc(N3CCC4(C=C(c5c(-c6c(Cl)cncc6Cl)noc5C5CC5)C4)CC3)sc2c1 [Example 181, 2-(2-(5-Cyclopropyl-3-(3,5-dichloropyridin-4-yl)isoxazol-4-yl)-7-azaspiro[3.5]non-1-en-7-yl)-N-(cyclopropylsulfonyl)-4-fluorobenzo[d]thiazole-6-carboxamide]
326 nM | O=C(O)c1ccc2cc(N3CCC4(C=C(c5c(-c6c(F)cccc6Cl)noc5C5CC5)C4)CC3)ccc2n1 [Example 156, 6-(2-(3-(2-Chloro-6-fluorophenyl)-5-cyclopropylisoxazol-4-yl)-7-azaspiro[3.5]non-1-en-7-yl)quinoline-2-carboxylic acid]
2790 nM | Cn1nc(N2CCC3(C=C(c4c(-c5ccccc5OC(F)(F)F)noc4C4CC4)C3)CC2)c2ncc(C(=O)O)cc21 [Example 173, 3-(2-(5-Cyclopropyl-3-(2-(trifluoromethoxy)phenyl)isoxazol-4-yl)-7-azaspiro[3.5]non-1-en-7-yl)-1-methyl-1H-pyrazolo[4,3-b]pyridine-6-carboxylic acid]
1870 nM | O=C(O)c1ccc(N2CCC3(C=C(c4c(-c5ncccc5Cl)noc4C4CC4)C3)CC2)nc1 [Example 171, 6-(2-(3-(3-Chloropyridin-2-yl)-5-cyclopropylisoxazol-4-yl)-7-azaspiro[3.5]non-1-en-7-yl)nicotinic acid]
63 nM | CS(=O)(=O)NC(=O)c1cc(OC(F)F)c2cc(N3CCC4(C=C(c5c(-c6cnccc6C(F)(F)F)noc5C5CC5)C4)CC3)ccc2n1 [Example 187, 6-(2-(5-Cyclopropyl-3-(4-(trifluoromethyl)pyridin-3-yl)isoxazol-4-yl)-7-azaspiro[3.5]non-1-en-7-yl)-4-(difluoromethoxy)-N-(methylsulfonyl)quinoline-2-carboxamide]
155 nM | COc1cc(C(=O)NS(C)(=O)=O)nc2ccc(N3CCC4(C=C(c5c(-c6ccccc6C(F)(F)F)noc5C5CC5)C4)CC3)cc12 [Example 196, 6-(2-(5-Cyclopropyl-3-(2-(trifluoromethyl)phenyl)isoxazol-4-yl)-7-azaspiro[3.5]non-1-en-7-yl)-4-methoxy-N-(methylsulfonyl)quinoline-2-carboxamide]
